According to PubChem BioAssay (NCI):
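Step 1: Grow cells in 96-well plates. Step 2: Expose to compound for 48 hours at 5 concentrations. Step 3: Interpolate endpoints linearly; if unreached, use highest concentration. TGI marks complete inhibition of growth.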

Experiments:
Assay in all cases: NCI anticancer screen, dose series, 48 h
NCI-H226 lung = system: NCI-H226 lung
OVCAR-3 ovarian = system: OVCAR-3 ovarian
EKVX NSCLC = system: EKVX NSCLC
NCI-H23 lung = system: NCI-H23 lung
UO-31 renal = system: UO-31 renal
CCRF-CEM leukemia = system: CCRF-CEM leukemia
K-562 leukemia = system: K-562 leukemia
UACC-257 melanoma = system: UACC-257 melanoma
UACC-62 melanoma = system: UACC-62 melanoma
A498 renal = system: A498 renal
RPMI-8226 leukemia = system: RPMI-8226 leukemia
A549 NSCLC = system: A549 NSCLC
KM12 colon = system: KM12 colon
M14 melanoma = system: M14 melanoma
RXF 393 renal = system: RXF 393 renal
T-47D breast = system: T-47D breast
MDA-N = system: MDA-N
OVCAR-5 ovarian = system: OVCAR-5 ovarian
HL-60(TB) leukemia = system: HL-60(TB) leukemia
PC-3 prostate = system: PC-3 prostate

SMILES | TGI (NCI-H226 lung) [µM] | TGI (OVCAR-3 ovarian) [µM] | TGI (EKVX NSCLC) [µM] | TGI (NCI-H23 lung) [µM] | TGI (UO-31 renal) [µM] | TGI (CCRF-CEM leukemia) [µM] | TGI (K-562 leukemia) [µM] | TGI (UACC-257 melanoma) [µM] | TGI (UACC-62 melanoma) [µM] | TGI (A498 renal) [µM] | TGI (RPMI-8226 leukemia) [µM] | TGI (A549 NSCLC) [µM] | TGI (KM12 colon) [µM] | TGI (M14 melanoma) [µM] | TGI (RXF 393 renal) [µM] | TGI (T-47D breast) [µM] | TGI (MDA-N) [µM] | TGI (OVCAR-5 ovarian) [µM] | TGI (HL-60(TB) leukemia) [µM] | TGI (PC-3 prostate) [µM]
CCOC(=O)CC(NC(=O)c1nc[nH]c1[N+](=O)[O-])C(=O)OCC (configuration not stated) | 72.5 | > 100 | > 100 | 49.8 | > 100 | > 100 | > 100 | > 100 | > 100 | > 100 | > 100 | > 100 | > 100 | > 100 |  |  |  |  |  | 
NS(=O)(=O)c1nnc(NC(=O)c2ccccc2)s1 | > 100 | > 100 | > 100 | > 100 | > 100 |  | > 100 | > 100 | > 100 | > 100 | > 100 | > 100 | > 100 | > 100 | > 100 | > 100 | > 100 | > 100 |  | 
COc1cc2c(c(OC)c1OC)-c1ccc(SC)c(=O)cc1C(CC(=O)Oc1ccc([N+](=O)[O-])cc1)C2 (configuration not stated) | 0.865 | 0.905 | > 100 | 1.88 | > 100 | > 100 |  | > 49.1 | 11.4 | 0.571 | > 63 | > 100 | 0.489 | 1.53 | 0.65 |  |  | > 100 | > 38.2 | 
CC1=CC(=O)NP(=O)(Oc2ccc(C)cc2)N1 (configuration not stated) | > 100 | > 100 | > 100 | > 100 | > 100 | > 100 | > 100 | > 100 | > 100 | > 100 | > 100 |  | > 100 | > 100 |  |  |  | > 100 | > 100 | 
Cc1ccccc1Nc1cn(COCc2ccccc2)c(=O)[nH]c1=O |  | > 100 | > 100 | > 100 | > 100 | > 100 | > 100 | > 100 | > 100 | > 100 | > 100 | > 100 | > 100 | > 100 | > 100 |  | > 100 | > 100 | > 100 | > 100
COC(=O)CCC(=O)NC1c2cccc3cccc(c23)Cn2c(=O)n(C)c(=O)n21 (configuration not stated) |  | > 100 | > 100 | > 100 | > 100 | > 100 | > 100 | > 100 | > 100 |  | > 100 | > 100 | > 100 | > 100 | > 100 |  |  | > 100 |  | > 100
CN(C)/N=C(\CCN1CCCC1)CC(c1ccccc1)c1c(O)c2ccccc2oc1=O (configuration not stated) | > 100 | > 100 | > 100 | > 100 |  | > 100 | > 100 | > 100 | > 100 |  | > 100 | > 100 |  | > 100 | > 100 |  |  | > 100 | 72.9 | 
O=C(c1ccc(Cl)cc1Cl)N(C(=O)N1CCCCC1)c1ccccc1 | > 100 | > 100 | > 100 | > 100 | > 100 | > 100 | > 100 | > 100 | > 100 | > 100 | > 100 |  | > 100 | > 100 | > 100 |  | > 100 | > 100 | > 100 | > 100
Cc1cc(=O)[nH]c(NNC(C#N)c2ccc(O)cc2)n1 (configuration not stated) | > 100 | > 100 |  | > 100 | > 100 | > 100 | > 100 | > 100 | > 100 |  | > 100 | > 100 | > 100 | > 100 | > 100 |  |  | > 100 | > 100 | 
O=C1CCC(c2ccccc2)C(O)(C(=O)O)C1 (configuration not stated) | > 100 | > 100 | > 100 | > 100 | > 100 | > 100 | > 100 | > 100 | > 100 | > 100 | > 100 | > 100 | > 100 | > 100 |  |  |  | > 100 | > 100 | 
CCOC(=O)c1c(SC(=O)/C=C/c2ccccc2)n(-c2ccccc2)c(=S)n(-c2ccccc2)c1=O | > 100 | > 100 | > 100 | > 100 |  | > 100 | > 100 | > 100 | > 100 | > 100 |  | > 100 | > 100 | > 100 | > 100 | > 100 |  | > 100 |  | > 100
S=C(/N=c1/sc(Nc2ccccc2)nc2sc3c(c12)CCCC3)Nc1ccccc1 | > 62.5 | > 62.5 | > 62.5 | > 62.5 | > 62.5 | > 62.5 | > 62.5 | > 62.5 | > 62.5 | > 62.5 | > 62.5 |  | > 62.5 |  | > 62.5 |  | > 62.5 | > 62.5 | > 62.5 | > 62.5
CCSc1nc(N2CCOCC2)c2cn[nH]c2n1 | > 100 | > 100 | > 100 | > 100 | > 100 | > 100 | > 100 | > 100 | > 100 | 15.9 | > 100 | > 100 | > 100 | > 100 | > 100 | > 100 |  | > 100 | > 100 | > 100
COc1ccc(-c2c(C(C)=O)c(-c3ccccc3)n(C3OC(COC(C)=O)C(OC(C)=O)C(OC(C)=O)C3OC(C)=O)c(=S)c2C#N)cc1 (configuration not stated) | > 100 | > 100 | > 100 | > 100 |  | > 100 | > 100 | > 100 | > 100 | > 100 |  | > 100 | > 100 | > 100 | > 100 | > 100 | > 100 | > 100 | > 100 | 
